The values below come from ChEMBL document CHEMBL1201862, “PubChem BioAssay data set” (2004).

In experiment [1] the test system is HEK293. The experiment in a line: cells. The following applies: Homo sapiens.
The test system of experiment [2] is HEK293. Description: cells. The settings on record: Homo sapiens. The source holds these as a separate data set.
Experiment [3] concerns Streptococcus. Description: GAS UMAA2166 growth inhibition – luminescence, BacTiterGlo, counter-screen for streptokinase expression inhibitor project, dose response (AID 1915).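 Also: potency for reduction of bacterial viability or growth.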 It is filed as functional, organism-based. For orientation: A counterscreen serves to expose hits that act by an unwanted route or on another target.
The test system of experiment [4] is INS1. Description: INS-1E survival protection against cytokine death – cell-based, luminescence, retest, dose response (AID 449756).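 Also: cell death triggered by IL-1 beta plus TNF-alpha plus IFN-gamma mixture; protective hits raise ATP signal compared with cytokine alone wells.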 It is filed as functional. The settings on record: Rattus norvegicus.
Experiment [5] has as its target T1, Serine/threonine-protein phosphatase (Candida dubliniensis (strain CD36 / CBS 7987 / NCPF 3949 / NRRLY-17841) (Yeast), UniProt B9W6M3).
T1 sequence (B9W6M3 whole entry): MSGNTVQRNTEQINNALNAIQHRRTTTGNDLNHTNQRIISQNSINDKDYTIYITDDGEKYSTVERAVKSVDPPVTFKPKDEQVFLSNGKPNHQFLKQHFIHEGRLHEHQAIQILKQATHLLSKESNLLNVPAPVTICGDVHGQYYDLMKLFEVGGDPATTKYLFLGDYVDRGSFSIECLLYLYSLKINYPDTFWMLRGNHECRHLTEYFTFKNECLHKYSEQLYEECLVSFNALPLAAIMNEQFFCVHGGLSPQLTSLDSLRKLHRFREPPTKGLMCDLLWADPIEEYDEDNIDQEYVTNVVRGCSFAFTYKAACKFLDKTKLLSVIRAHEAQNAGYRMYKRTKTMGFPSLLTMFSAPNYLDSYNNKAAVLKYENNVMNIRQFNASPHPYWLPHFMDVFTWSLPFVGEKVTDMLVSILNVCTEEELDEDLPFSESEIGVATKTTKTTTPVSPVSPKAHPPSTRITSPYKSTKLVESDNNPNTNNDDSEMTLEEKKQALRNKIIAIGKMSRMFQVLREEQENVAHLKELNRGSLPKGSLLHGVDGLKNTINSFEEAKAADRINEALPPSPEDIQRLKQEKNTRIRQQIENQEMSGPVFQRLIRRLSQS
The experiment in a line: blockers of CaCl2-induced CDRE-lacZ signaling – S. cerevisiae, luminescence, secondary, dose response (AID 2388).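 Also: yeast reporter cells carrying a calcineurin-responsive lacZ construct stimulated with calcium chloride; luminescent beta-galactosidase reporter signal in whole cells rather than isolated phosphatase activity; potency for inhibition where a drop in reporter signal means calcineurin blockade.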 It is filed as functional, cell-based.

Experiment [6] can be described thus: alpha-synuclein stem-loop luciferase translation blockers – H4 neuroglioma cells, luminescence, confirmation (AID 1988). It is filed as functional, cell-based.
The nature of experiment [7]: Luminescence Cell-Based Dose Response HTS to Identify Inhibitors of 5'UTR Stem-Loop Driven Prion Protein mRNA Translation in H4 Neuroglioblastoma Cells. [Related pubchem assays: 1827 (Project Summary), 1813 (Primary HTS)]. It is filed as functional.
A short description of experiment [8]: NIH-3T3 fibroblast cytotoxicity, dose response, cytotoxicity control, cell-based, fluorescence, Alamar Blue, secondary assay (AID 2327).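 Also: NIH-3T3 mouse fibroblasts cultured with fluconazole at 8 µg/mL.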 It is filed as functional.
Experiment [9] is described as follows: microbe, parasite or virus in culture. It is filed as functional. The following applies: Mycobacterium tuberculosis.
Experiment [10] has as its target T1, Serine/threonine-protein phosphatase. The experiment in a line: Fluorescence Cell-Based Secondary Assay to Identify Inhibitors of Calcineurin. [Related pubchem assays (depositor defined):AID1979, AID2007]. It is filed as functional.
Experiment [11] concerns the target ATP-dependent molecular chaperone HSP82 (Candida albicans (strain WO-1) (Yeast), UniProt C4YTQ8). The experiment in a line: steroid-induced GRE reporter decrease in yeast – S. cerevisiae, luminescence, Hsp90 inhibitor project, dose response (AID 2400).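 Also: beta-galactosidase luminescence from glucocorticoid response element reporter as proxy for Hsp90 function; inhibitor potency where signal loss means Hsp90 inhibition.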 It is filed as functional, cell-based.
Experiment [12] in a line: fluconazole-exposed Candida albicans growth modulators – fluorescence, retest, confirmation (AID 2467). It is filed as functional, cell-based.
In experiment [13] the test system is Streptococcus sp. 'group A'. The experiment in a line: Streptococcus pyogenes SK(-)GAS viability under kanamycin – luminescence, BacTiterGlo, confirmation, counter-screen for streptokinase expression inhibitor project, dose response (AID 1900). It is filed as functional, organism-based.
Experiment [14] can be described thus: luciferase reporter signal suppression in cells – H4 neuroglioma cells, luminescence, dose response (AID 1990). It is filed as functional, cell-based. Background: Reporter assays use an easily measured gene product as a stand-in for the process of interest.
Experiment [15] can be described thus: HEK-293T viability loss, compound-treated – cell-based, uHTS hits, cytotoxicity control for B/T-cell NF-kB inhibitor project, dose response (AID 489019).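 Also: IC50 reflects cytotoxicity as loss of cell viability.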 It is filed as functional.
Experiment [16] in a line: luciferase reporter signal reduction – luminescence, H4-C neuroglioblastoma cells, dose response (AID 2458).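 Also: H4 neuroglioblastoma cells stably carrying a luciferase reporter gene fusion.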 It is filed as functional, cell-based.
Experiment [17] in a line: alpha-synuclein stem-loop translation blockers – luminescence, H4 neuroglioblastoma cells, dose confirmation, confirmation (AID 2454).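 Also: H4 neuroglioblastoma cells carrying an alpha-synuclein 5'UTR luciferase reporter; potency for inhibition of the luciferase signal.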 It is filed as functional, cell-based.
The test system of experiment [18] is HT-1080. The experiment in a line: HT1080 cell viability loss – fluorescence readout (AID 620). It is filed as functional, cell-based. The settings on record: Homo sapiens.
Experiment [19] is described as follows: blockers of HIV-1 envelope-mediated cell-cell fusion – cherry-pick, dose response (AID 652057). It is filed as functional, cell-based.
In experiment [20] the test system is Jurkat. Description: blockers of NF-kB activation in T cells – Jurkat, luciferase reporter, luminescence, B- and T-cell, dose response (AID 489004).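 Also: NF-kB luciferase reporter Jurkat cells stimulated with PMA plus ionomycin.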 The following applies: Homo sapiens. It is filed as functional, cell-based.
For experiment [21], the target named is T2, Heat shock factor protein 1 (Mus musculus, UniProt P38532).
T2 sequence (P38532 whole entry): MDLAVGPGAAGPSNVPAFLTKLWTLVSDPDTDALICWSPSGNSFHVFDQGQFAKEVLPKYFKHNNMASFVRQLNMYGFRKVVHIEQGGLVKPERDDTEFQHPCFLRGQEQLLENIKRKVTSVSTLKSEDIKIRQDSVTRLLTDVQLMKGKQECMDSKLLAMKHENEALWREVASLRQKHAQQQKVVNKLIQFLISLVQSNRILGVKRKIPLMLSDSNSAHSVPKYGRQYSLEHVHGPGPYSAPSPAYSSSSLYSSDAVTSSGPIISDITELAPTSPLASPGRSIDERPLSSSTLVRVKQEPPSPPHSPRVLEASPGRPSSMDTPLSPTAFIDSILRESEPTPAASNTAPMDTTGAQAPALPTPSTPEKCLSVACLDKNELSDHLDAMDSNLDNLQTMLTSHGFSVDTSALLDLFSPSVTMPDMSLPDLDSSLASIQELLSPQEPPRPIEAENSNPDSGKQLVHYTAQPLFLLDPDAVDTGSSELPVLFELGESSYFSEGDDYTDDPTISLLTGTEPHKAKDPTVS
The experiment in a line: decrease of HSF1-responsive luciferase luminescence – cell-based, NIH3T3, dose retest, confirmation (AID 2382).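 Also: NIH3T3 fibroblasts with HSF1-driven luciferase reporter stressed by proteasome inhibitor MG132; luminescence from HSF1-driven luciferase expression after 8 hours of MG132 stress.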 It is filed as functional.

Experiment [22] is described as follows: off-target signal loss in HeLa-CEM21 co-culture – HeLa F-luc CTL cells, cherry-picked, counter-screen for HIV-1 Env fusion inhibitor project, dose response (AID 652040).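 Also: potency for signal decrease marking cytotoxic or nonspecific inhibition.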 It is filed as functional, cell-based.
The target in experiment [23] is Luciferin 4-monooxygenase (Photinus pyralis, UniProt P08659). The experiment in a line: Counter Screen for Luciferase-based Assay Positives. [Related pubchem assays: 620, 618, 411 ].
Chain of Luciferin 4-monooxygenase (P08659 whole entry): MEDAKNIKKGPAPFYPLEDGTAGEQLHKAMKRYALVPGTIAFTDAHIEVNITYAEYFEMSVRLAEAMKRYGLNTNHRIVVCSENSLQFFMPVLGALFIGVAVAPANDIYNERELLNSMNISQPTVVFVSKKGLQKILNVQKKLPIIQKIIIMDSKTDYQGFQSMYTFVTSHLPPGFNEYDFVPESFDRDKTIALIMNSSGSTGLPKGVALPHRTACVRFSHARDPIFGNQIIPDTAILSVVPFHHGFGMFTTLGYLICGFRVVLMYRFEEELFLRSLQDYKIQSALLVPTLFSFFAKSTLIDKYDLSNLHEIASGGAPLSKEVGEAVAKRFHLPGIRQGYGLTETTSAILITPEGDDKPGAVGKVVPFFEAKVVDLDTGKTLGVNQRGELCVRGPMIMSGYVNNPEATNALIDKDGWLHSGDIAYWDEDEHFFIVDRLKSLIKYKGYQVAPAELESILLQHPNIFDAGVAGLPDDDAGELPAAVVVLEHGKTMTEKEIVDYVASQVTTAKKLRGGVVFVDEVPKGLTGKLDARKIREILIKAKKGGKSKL
In experiment [24] the target is T3, Microphthalmia-associated transcription factor (Homo sapiens, UniProt O75030).
T3 sequence (O75030 whole entry): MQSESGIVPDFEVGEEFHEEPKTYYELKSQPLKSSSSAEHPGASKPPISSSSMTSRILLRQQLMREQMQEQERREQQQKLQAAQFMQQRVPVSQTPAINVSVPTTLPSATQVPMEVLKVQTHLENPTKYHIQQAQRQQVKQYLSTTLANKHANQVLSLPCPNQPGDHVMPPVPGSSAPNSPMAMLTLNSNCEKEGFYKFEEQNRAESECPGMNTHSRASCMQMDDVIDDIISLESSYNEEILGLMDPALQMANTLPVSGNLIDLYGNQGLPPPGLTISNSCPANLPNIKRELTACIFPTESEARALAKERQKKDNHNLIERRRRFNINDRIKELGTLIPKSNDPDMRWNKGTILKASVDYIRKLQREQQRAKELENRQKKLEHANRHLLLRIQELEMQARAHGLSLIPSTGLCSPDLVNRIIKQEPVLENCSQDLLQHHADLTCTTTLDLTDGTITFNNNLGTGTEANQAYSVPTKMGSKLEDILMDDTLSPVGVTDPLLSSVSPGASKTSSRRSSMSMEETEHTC
Description: reducers of TRPM1 reporter luminescence, concentration series – cell-based, SK-MEL-5, cherry-picked, set 3, MITF inhibitor project, dose response (AID 493073).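 Also: SK-MEL-5 melanoma cells with luciferase driven by the MITF target TRPM1 promoter.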 It is filed as functional.

The nature of experiment [25]: blockers of HIV-1 ZM109 envelope-driven cell-cell fusion – HeLa effector, CEM target cells, luciferase, cherry-pick, dose response (AID 652058).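 Also: luciferase signal from HIV-1 Env mediated cell-cell fusion of effector and target cells.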 It is filed as functional, cell-based.
The nature of experiment [26]: cells. It is filed as functional, cell-based.
The nature of experiment [27]: HIV-1 AD8 envelope cell-cell fusion blockers – cherry-pick, dose response (AID 652062).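 Also: luciferase signal from cell-cell fusion driven by HIV-1 clade B AD8 Env; potency is for inhibitors of fusion seen as a drop in luminescence.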 It is filed as functional, cell-based.
Experiment [28] can be described thus: non-specific 3'UTR reporter inhibition in Clone20-Shn3RL – cell-based, Renilla luciferase, cherry-picked, counter-screen for Shn3 inhibitor project, dose response (AID 624133). It is filed as functional.
Experiment [29] has as its target Protein Wnt-3a (Mus musculus, UniProt P27467). The experiment in a line: antagonism of Wnt3a pathway luciferase reporter – Wnt-LIGHT cells, luminescence, selectivity assay for Gli-SUFU antagonist project, dose response (AID 651570).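 Also: Wnt-LIGHT reporter cells stimulated with conditioned medium from Wnt3a-producing cells.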 It is filed as functional. The settings on record: read-out: IC50_Mean.
Experiment [30] concerns the target T4, COUP transcription factor 2 (Homo sapiens, UniProt P24468).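 Also: HEK293 cells transiently cotransfected with COUP-TFII expression vector and reporter; luciferase reporter luminescence driven by COUP-TFII from the pX2-168 reporter plasmid.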
T4 sequence (P24468 whole entry): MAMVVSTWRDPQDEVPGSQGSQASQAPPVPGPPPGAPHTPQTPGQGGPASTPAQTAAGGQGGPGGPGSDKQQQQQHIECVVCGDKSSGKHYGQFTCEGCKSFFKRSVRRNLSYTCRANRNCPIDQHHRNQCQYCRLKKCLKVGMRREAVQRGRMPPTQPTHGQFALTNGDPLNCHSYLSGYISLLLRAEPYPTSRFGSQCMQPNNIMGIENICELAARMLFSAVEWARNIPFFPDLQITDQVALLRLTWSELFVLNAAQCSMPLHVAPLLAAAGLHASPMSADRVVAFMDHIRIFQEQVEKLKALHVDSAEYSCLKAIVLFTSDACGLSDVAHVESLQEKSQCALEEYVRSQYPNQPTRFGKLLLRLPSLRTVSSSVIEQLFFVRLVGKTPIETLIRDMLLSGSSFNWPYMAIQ
Description: Luminescence-based cell-based high throughput dose response assay to identify inhibitors of COUP-TFII (NR2F2). It is filed as functional.

Experiment [31] can be described thus: reduction of Shn3 3'UTR-driven luciferase in osteoblasts – cell-based, Clone20 osteoblasts, firefly luciferase, cherry-picked, dose response (AID 624132).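 Also: firefly luciferase luminescence from reporter carrying the Shn3 3'UTR in osteoblasts.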 It is filed as functional.

Structures are written as SMILES. Calls of active or inactive are those of the source.

Chain of Protein Wnt-3a (P27467 whole entry): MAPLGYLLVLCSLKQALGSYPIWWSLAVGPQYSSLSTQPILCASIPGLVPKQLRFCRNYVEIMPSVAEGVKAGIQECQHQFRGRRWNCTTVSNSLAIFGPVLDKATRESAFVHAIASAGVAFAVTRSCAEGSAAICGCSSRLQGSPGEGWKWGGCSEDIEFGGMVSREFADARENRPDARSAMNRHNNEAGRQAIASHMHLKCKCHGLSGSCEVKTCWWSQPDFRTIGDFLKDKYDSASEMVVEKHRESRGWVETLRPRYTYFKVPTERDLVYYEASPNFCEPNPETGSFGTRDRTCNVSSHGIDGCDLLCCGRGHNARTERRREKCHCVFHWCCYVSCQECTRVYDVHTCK
Chain of ATP-dependent molecular chaperone HSP82 (C4YTQ8 whole entry): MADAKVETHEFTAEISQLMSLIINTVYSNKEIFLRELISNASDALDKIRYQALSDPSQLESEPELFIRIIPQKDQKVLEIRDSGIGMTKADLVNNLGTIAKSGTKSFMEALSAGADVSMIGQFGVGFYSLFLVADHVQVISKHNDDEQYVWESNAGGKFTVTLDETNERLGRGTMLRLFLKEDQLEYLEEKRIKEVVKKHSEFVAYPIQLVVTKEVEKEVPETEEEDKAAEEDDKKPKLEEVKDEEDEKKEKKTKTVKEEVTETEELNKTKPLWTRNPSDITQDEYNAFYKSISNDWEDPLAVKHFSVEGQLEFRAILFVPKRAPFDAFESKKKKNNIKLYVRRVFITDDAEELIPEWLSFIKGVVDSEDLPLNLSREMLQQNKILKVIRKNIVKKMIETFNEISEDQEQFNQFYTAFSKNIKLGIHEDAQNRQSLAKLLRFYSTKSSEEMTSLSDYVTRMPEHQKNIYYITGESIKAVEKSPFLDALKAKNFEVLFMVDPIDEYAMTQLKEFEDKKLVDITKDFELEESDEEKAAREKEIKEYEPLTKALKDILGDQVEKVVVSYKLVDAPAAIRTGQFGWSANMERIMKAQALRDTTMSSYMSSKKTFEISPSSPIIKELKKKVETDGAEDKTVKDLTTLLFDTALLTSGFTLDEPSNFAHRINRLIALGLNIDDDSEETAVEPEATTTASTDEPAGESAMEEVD

With `Cc1cc(NC(=O)CSc2nc(C(C)C)nc3sc(C)c(C)c23)no1`, the EC50 in [1] and in experiment [2] was > 59700 nM (inactive) throughout.
Consider `CC(C)COCc1ccc(O)c2ncccc12`, for which the EC50 in experiment [3] is 5430 nM (active); in [5], > 180000 nM (inactive); in [6], 9380 nM (active); in experiment [7] it was 10900 nM (active); in experiment [8], 31800 nM (active); in [10], > 285000 nM (inactive). The EC50 in [11] is > 150000 nM (inactive); in [12] it was 294 nM (active); in [13] it was 1670 nM (active); in [14] it was 12100 nM (active). Moreover, in experiment [4], the half-maximal activity concentration (AC50) is 2350 nM (active). In addition, in experiment [9], the CC50 is 10200 nM (active).
As for `CC(C)(C)c1ccc(C(=O)Nc2ccc(CC(=O)O)cc2)o1`, the IC50 was > 80000 nM (inactive) in experiment [15] and < 160 nM (active) in [20]. Also, the EC50 in [16] was 106 nM (active); in [17] it was 113 nM (active); in [6], < 100 nM (active); in experiment [18] it was > 50000 nM (not active); in [21], < 160 nM (active); in experiment [23] it was 570 nM (active). The EC50 in experiment [26] is 344 nM (active); in experiment [14], < 100 nM (active). The concentration at half-maximal activity (AC50) in experiment [19] was 392 nM (active); in [22] it was 558 nM (active); in [24], 329 nM (active); in experiment [25] it was < 260 nM (active); in experiment [27], < 260 nM (active).
In the case of `CCOC(=O)C1CCCN(S(=O)(=O)c2ccc(S(=O)(=O)N(CC)CC)cc2)C1` (stereo unspecified), the IC50 in [15] was > 80000 nM (inactive); in experiment [20], > 80000 nM (inactive); in experiment [29] it was 236 nM (active); in [30], 4750 nM (active). The AC50 in [4] is 2600 nM (active); in experiment [28] it was 801 nM (active); in experiment [31], 512 nM (active).

As usually defined, the EC50 is the concentration giving half of the maximal effect. As a reminder, the AC50 is the concentration giving half of the maximal activity seen.
